This note sets out measurements from US20120232070A1, “Use of Indole Derivatives as Nurr-1 Activators for the Application Thereof as a Medicament for the Treatment of Parkinson's Disease” (Laboratoires Fournier SA, priority 2009, published 2012).

For assay [1], the target named is hNurr1_RXRαFL (NURR1/RXRα heterodimer) (Homo sapiens, UniProt P19793+P43354). Briefly: Transactivation assay in Cos-7 cells, NURR-1-Gal4 / RXRα, luciferase reporter. The format is cell-based. The conditions noted are these: for Emax: COS-7, read-out: hNurr1_RXRαFL Eff (%), efficacy in % relative to the reference XCT0135908 at 2·10^−5 M (=100%); for EC50: Cos-7 cells, overnight incubation. The method, boiled down: (§1)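 Cos-7 cells co-transfected with human NURR-1-Gal4 chimera, human RXRα or RXRγ, and 5Gal4pGL3-TK-Luc reporter; compounds added at 10^−4 to 3·10^−10 M final, overnight incubation, luciferase read. Induction over each heterodimer's baseline expressed as % of reference RXR agonist XCT0135908 (2·10^−5 M) taken as 100%.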
Sequence of hNurr1_RXRαFL (NURR1/RXRα heterodimer) (P19793 whole entry, the tested form may be a part): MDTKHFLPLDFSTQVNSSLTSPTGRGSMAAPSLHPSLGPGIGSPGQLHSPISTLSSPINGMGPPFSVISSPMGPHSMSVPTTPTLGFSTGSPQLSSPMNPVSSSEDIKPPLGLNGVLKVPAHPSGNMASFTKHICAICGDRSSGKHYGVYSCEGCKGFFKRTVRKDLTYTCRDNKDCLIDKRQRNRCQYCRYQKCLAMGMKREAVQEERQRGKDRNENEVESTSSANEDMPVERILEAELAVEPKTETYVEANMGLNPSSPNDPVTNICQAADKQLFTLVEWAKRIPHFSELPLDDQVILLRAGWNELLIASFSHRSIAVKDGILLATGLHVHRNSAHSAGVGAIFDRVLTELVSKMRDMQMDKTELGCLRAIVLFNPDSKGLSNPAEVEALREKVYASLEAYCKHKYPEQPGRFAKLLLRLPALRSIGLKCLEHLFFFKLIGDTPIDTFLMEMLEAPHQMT
Sequence of hNurr1_RXRαFL (NURR1/RXRα heterodimer) (P43354 328-598): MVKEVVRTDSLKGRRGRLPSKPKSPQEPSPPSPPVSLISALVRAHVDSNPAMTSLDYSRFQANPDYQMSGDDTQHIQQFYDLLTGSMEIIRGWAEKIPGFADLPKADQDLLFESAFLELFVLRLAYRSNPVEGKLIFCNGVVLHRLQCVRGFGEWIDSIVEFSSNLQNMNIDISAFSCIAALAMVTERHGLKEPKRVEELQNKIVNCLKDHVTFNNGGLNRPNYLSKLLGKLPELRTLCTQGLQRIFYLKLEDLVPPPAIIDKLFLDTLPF
Background: Reporter assays use an easily measured gene product as a stand-in for the process of interest.

The target in assay [2] is hNurr1_RXRγFL (NURR1/RXRγ heterodimer) (Homo sapiens, UniProt P43354+P48443). Kind of assay: Transactivation assay in Cos-7 cells, NURR-1-Gal4 / RXRγ, luciferase reporter. In kind it is cell-based. The settings on record: for Emax: COS-7, read-out: hNurr1_RXRγFL Eff (%), efficacy in % relative to the reference XCT0135908 at 2·10^−5 M (=100%); for EC50: Cos-7 cells, overnight incubation. The method, boiled down: as §1
Sequence of hNurr1_RXRγFL (NURR1/RXRγ heterodimer) (P43354 328-598): as above
Sequence of hNurr1_RXRγFL (NURR1/RXRγ heterodimer) (P48443 whole entry, the tested form may be a part): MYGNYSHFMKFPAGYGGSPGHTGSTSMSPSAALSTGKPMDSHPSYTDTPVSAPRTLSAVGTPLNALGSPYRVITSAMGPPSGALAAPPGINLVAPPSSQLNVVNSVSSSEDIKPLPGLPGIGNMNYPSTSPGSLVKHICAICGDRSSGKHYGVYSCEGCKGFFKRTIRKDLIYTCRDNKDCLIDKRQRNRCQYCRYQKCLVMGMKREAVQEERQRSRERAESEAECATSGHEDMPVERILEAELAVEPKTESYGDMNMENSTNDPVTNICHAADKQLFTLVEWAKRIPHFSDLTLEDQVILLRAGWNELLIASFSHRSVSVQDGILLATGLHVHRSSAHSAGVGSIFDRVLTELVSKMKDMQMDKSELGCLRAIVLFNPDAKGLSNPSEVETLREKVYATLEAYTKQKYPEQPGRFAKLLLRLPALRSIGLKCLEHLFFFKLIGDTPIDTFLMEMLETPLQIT

As usually defined, the EC50 is the concentration at which the effect is half-maximal. Higher therefore signals lower potency in that assay. As to `O=C(O)c1ccc(Cc2cc3cc(C(F)(F)F)ccc3n2S(=O)(=O)c2cc3ccccc3o2)cc1` [Example 122, 4-[[1-[benzofuran-2-sulfonyl]-5-(trifluoromethyl)-1H-indol-2-yl]methyl]benzoic acid], in assay [1], the Emax was found to be 62% and a half-maximal effect (EC50) was put at 353 nM. For the same molecule, in assay [2], the Emax was 54% and the 50% effective concentration (EC50) was found to be 680 nM.

Regarding `CCCOc1ccc(S(=O)(=O)n2c(Cc3ccc(C(=O)O)cc3)cc3cc(C(F)(F)F)ccc32)cc1` [Example 123, 4-[[1-[4-propoxy-phenylsulfonyl]-5-(trifluoromethyl)-1H-indol-2-yl]methyl]benzoic acid], in assay [1], the Emax was 60% and the EC50 is 217 nM. Moreover, in assay [2], the Emax stood at 36% and it took 646 nM to reach a half-maximal effect (EC50).

For the molecule `O=C(O)c1ccc(Cc2cc3cc(C(F)(F)F)ccc3n2S(=O)(=O)c2ccc(OC(F)F)c(Cl)c2)cc1` [Example 124, 4-[[1-[3-chloro-4-difluoromethoxy-phenylsulfonyl]-5-(trifluoromethyl)-1H-indol-2-yl]methyl]benzoic acid], the Emax in assay [1] is 59%; in assay [2], 44%. Further, the results for the EC50 in assay [1] and in assay [2] were 349 nM and 697 nM, respectively.

Regarding `CN1C(=O)COc2ccc(S(=O)(=O)n3c(Cc4ccc(C(=O)O)cc4)cc4cc(C(F)(F)F)ccc43)cc21` [Example 125, 4-[[1-[4-methyl-3-oxo-3,4-dihydro-2H-benzo[1,4]oxazine-6-sulfonyl]-5-(trifluoromethyl)-1H-indol-2-yl]methyl]benzoic acid], in assay [1], the Emax worked out at 61% and the EC50 came to 808 nM. Moreover, in assay [2], the Emax was 101% and the response was half-maximal at 724 nM (EC50).

Take `O=C(O)c1ccc(Cc2cc3cc(C(F)(F)F)ccc3n2S(=O)(=O)c2cccc(SC(F)F)c2)cc1` [Example 126, 4-[[1-[3-difluoromethylsulfanyl-phenylsulfonyl]-5-(trifluoromethyl)-1H-indol-2-yl]methyl]benzoic acid]: the values for the Emax in assay [1] and in assay [2] were 44% and 32%, respectively. In addition, the EC50 was 122 nM in assay [1] and 141 nM in assay [2].

As for `CC(C)COc1ccc(S(=O)(=O)n2c(Cc3ccc(C(=O)O)cc3)cc3cc(C(F)(F)F)ccc32)cc1` [Example 127, 4-[[1-[4-isobutoxy-phenylsulfonyl]-5-(trifluoromethyl)-1H-indol-2-yl]methyl]benzoic acid], in assay [1], the Emax turned out to be 48% and the EC50 was found to be 263 nM. Moreover, in assay [2], the Emax was 45% and the 50% effective concentration (EC50) was found to be 575 nM.

Turning to `CC(C)CCc1ccc(S(=O)(=O)n2c(Cc3ccc(C(=O)O)cc3)cc3cc(C(F)(F)F)ccc32)cc1` [Example 128, 4-[[1-[4-(3-methyl-butyl)-phenylsulfonyl]-5-(trifluoromethyl)-1H-indol-2-yl]methyl]benzoic acid], in assay [1], the Emax is 44% and the midpoint of the response, the EC50, lay at 337 nM. Moreover, in assay [2], the Emax was found to be 36% and a half-maximal effect (EC50) was put at 1590 nM.

As for `O=C(O)c1ccc(Cc2cc3cc(C(F)(F)F)ccc3n2S(=O)(=O)c2ccc(Oc3ccccc3)nc2)cc1` [Example 130, 4-[[1-[(6-phenoxy-3-pyridinyl)sulfonyl]-5-(trifluoromethyl)-1H-indol-2-yl]methyl]benzoic acid], in assay [1], the Emax is 30% and the EC50 was found to be 347 nM. For the same molecule, in assay [2], the Emax was 22% and the EC50 amounted to 1700 nM.

For `Cc1cc(C)n(-c2ccc(S(=O)(=O)n3c(Cc4ccc(C(=O)O)cc4)cc4cc(C(F)(F)F)ccc43)cc2)n1` [Example 131, 4-[[1-[4-(3,5-dimethyl-pyrazol-1-yl)-phenylsulfonyl]-5-(trifluoromethyl)-1H-indol-2-yl]methyl]benzoic acid], in assay [1], the Emax worked out at 30% and the EC50 is 603 nM. Also, in assay [2], the Emax came out at 21% and a half-maximal effect (EC50) was put at 1480 nM.

In the case of `CC1(C)CCc2cc(S(=O)(=O)n3c(Cc4ccc(C(=O)O)cc4)cc4cc(C(F)(F)F)ccc43)ccc2O1` [Example 132, 4-[[1-[(3,4-dihydro-2,2-dimethyl-2H-1-benzopyran-6-yl)sulfonyl]-5-(trifluoromethyl)-1H-indol-2-yl]methyl]benzoic acid], in assay [1], the Emax worked out at 45% and the EC50 stood at 221 nM. For the same molecule, in assay [2], the Emax was found to be 28% and the EC50 was determined as 352 nM.

Consider `CCc1ccc(S(=O)(=O)n2c(Cc3ccc(C(=O)O)cc3)cc3cc(C(F)(F)F)ccc32)cc1` [Example 133, 4-[[1-[4-ethyl-phenylsulfonyl]-5-(trifluoromethyl)-1H-indol-2-yl]methyl]benzoic acid], for which the Emax in assay [1] is 49%; in assay [2], 38%. Also, the values for the EC50 in assay [1] and in assay [2] were 177 nM and 304 nM, respectively.

In the case of `Cc1ccc(S(=O)(=O)n2c(Cc3ccc(C(=O)O)cc3)cc3cc(C(F)(F)F)ccc32)cc1` [Example 134], the Emax in assay [1] stood at 50%; in assay [2], 36%. Besides, the EC50 in assay [1] stood at 212 nM; in assay [2], 552 nM.

Take `O=C(O)c1ccc(Cc2cc3cc(C(F)(F)F)ccc3n2S(=O)(=O)c2ccc(N3CCOCC3)nc2)cc1` [Example 135, 4-[[1-[[6-(4-morpholinyl)-3-pyridinyl]sulfonyl]-5-(trifluoromethyl)-1H-indol-2-yl]methyl]benzoic acid]: in assay [1], the Emax stood at 31% and a half-maximal response (EC50) required 643 nM. Also, in assay [2], the Emax came out at 19% and it took 917 nM to reach a half-maximal effect (EC50).

With `O=C(O)c1ccc(Cc2cc3cc(C(F)(F)F)ccc3n2S(=O)(=O)c2ccc(Cl)cc2)cc1` [Example 136, 4-[[1-[4-chloro-phenylsulfonyl]-5-(trifluoromethyl)-1H-indol-2-yl]methyl]benzoic acid], in assay [1], the Emax came to 35% and the EC50 stood at 275 nM. In addition, in assay [2], the Emax came out at 25% and the EC50 was more than 10000 nM.

In the case of `O=C(O)c1ccc(Cc2cc3cc(C(F)(F)F)ccc3n2S(=O)(=O)c2ccc(F)cc2)cc1` [Example 137, 4-[[1-[4-fluoro-phenylsulfonyl]-5-(trifluoromethyl)-1H-indol-2-yl]methyl]benzoic acid], in assay [1], the Emax is 37% and the EC50 turned out to be 529 nM. In assay [2], the Emax was 18% and the response was half-maximal at 730 nM (EC50).

For `COc1ccc(S(=O)(=O)n2c(Cc3ccc(C(=O)O)cc3)cc3cc(C(F)(F)F)ccc32)cc1` [Example 138, 4-[[1-[4-methoxy-phenylsulfonyl]-5-(trifluoromethyl)-1H-indol-2-yl]methyl]benzoic acid], in assay [1], the Emax stood at 41% and the EC50 came to 344 nM. Moreover, in assay [2], the Emax was found to be 28% and the midpoint of the response, the EC50, lay at 583 nM.

On to `CCCc1ccc(S(=O)(=O)n2c(Cc3ccc(C(=O)O)cc3)cc3cc(C(F)(F)F)ccc32)cc1` [Example 139, 4-[[1-[4-propyl-phenylsulfonyl]-5-(trifluoromethyl)-1H-indol-2-yl]methyl]benzoic acid], for which, in assay [1], the Emax was determined as 46% and the EC50 was determined as 202 nM. Also, in assay [2], the Emax is 43% and the EC50 worked out at 344 nM.

Turning to `CCCCCc1ccc(S(=O)(=O)n2c(Cc3ccc(C(=O)O)cc3)cc3cc(C(F)(F)F)ccc32)cc1` [Example 140, 4-[[1-[4-pentyl-benzenesulfonyl]-5-(trifluoromethyl)-1H-indol-2-yl]methyl]benzoic acid], the Emax amounted to 46% in assay [1] and 22% in assay [2]. The values for the EC50 in assay [1] and in assay [2] were 368 nM and 387 nM, respectively.
